Key:
DNA polymerase CENT1 = assay: Primer extension assay with DNA polymerase CENT1; type: biochemical; settings: 2 uM nucleotide, 45° C., one minute, denaturing PAGE
Method: (§1) Oligo Preparation: Oligos were purchased from IDT and stored at 500 uM in nuclease-free water: A biotinylated target sequence (Biot_Primer1_Capt, 5′-/5Biosg/[…] TTTCAG-3′ (SEQ ID NO: 1)) and a sequencing primer (SP_T, 5′-[…]-3′ (SEQ ID NO: 2)). 8 nmol of the biotinylated template sequence was conjugated to streptavidin-coated magnetic beads (T1 Dynabeads, Invitrogen) for one hour at room temperature in a solution containing 1M NaCl, 10 mM Tris-HCl pH7.5, 1 mM EDTA. Beads were washed three times with wash buffer at 60° C. (0.64×SSC, 0.016% SDS) to remove unbound primer and stored in 800 μL reaction binding buffer, RB, (1M NaCl, 25 mM Tris-HCl pH7.5, 0.01% TWEEN20) at 4° C. To hybridize the sequencing primer to the template, 100 uL of conjugated beads were incubated with a saturating amount of SP_T (2.5 nmol) in 200 μL RB at 70° C. for five minutes, 55° C. for 15 minutes, then 25° C. for 5 minutes. Hybridized beads were stored in 360 uL RB at room temperature.

Bst polymerase [1] = settings: "runaway" reaction with Bst polymerase, 100 uM dNTPs, 37° C., before TCEP treatment
Method: For reactions with Bst large fragment (NEB), 40 uL of hybridized beads were resuspended in 22.5 uL of reaction mixture (40 mM Tris-HCl pH8.8, 20 mM ammonium sulfate, 20 mM KCl, 0.2% Triton X-100, 2 mM MgSO4, 40 U Bst). Reactions were pre-warmed to 37° C. for one minute before adding 2.5 uL of 1 mM dNTPs (NEB) (for a final concentration of 100 uM). After five minutes at 37° C., reactions were quenched with 40 μL RB. Beads were washed with 40 μL RB and SP_T was eluted with 0.1N NaOH for 10 minutes at room temperature then neutralized with 1.5 uL Tris-HCl pH8.0.
Denaturing PAGE: An equal volume of 2×TBE-Urea Sample Buffer (Novex, Thermo Fisher) was added to samples before heat-denaturation for five minutes at 85° C. 10 μL sample and a 10 bp ladder (TrackIt, Invitrogen) on a 15% TBE-Urea PAGE gel (Novex, Thermo Fisher) in 1×TBE for two hours at 160V. Gels were imaged for fluorescence before staining and again after staining with SYBR Gold (Thermo) on an AlphaImager 3400.

Bst polymerase [2] = settings: incubation with 100 mM TCEP pH9.0, 65° C., 30 minutes
Method: Primer extension: For reactions with CENT1 enzyme, the enzyme was boiled for 5 minutes at 95° C. before use. 40 uL of hybridized beads were resuspended in 22.5 uL of reaction mixture (40 mM Tris-HCl pH8.8, 20 mM ammonium sulfate, 20 mM KCl, 0.2% Triton X-100, 2 mM MgSO4, 1.5 ug CENT1). Reactions were pre-warmed to 45° C. for one minute before adding 2.5 uL of 20 uM nucleotide (for a final concentration of 2 uM). After one minute of incorporation, reactions were quenched with 40 μL RB. Beads were washed with 40 μL RB and either resuspended in a new reaction mixture for further incorporation events or SP_T was eluted with 0.1 N NaOH for 10 minutes at room temperature then neutralized with 1.5 uL Tris-HCl pH8.0. For reactions with Bst large fragment (NEB), 40 uL of hybridized beads were resuspended in 22.5 uL of reaction mixture (40 mM Tris-HCl pH8.8, 20 mM ammonium sulfate, 20 mM KCl, 0.2% Triton X-100, 2 mM MgSO4, 40 U Bst). Reactions were pre-warmed to 37° C. for one minute before adding 2.5 uL of 1 mM dNTPs (NEB) (for a final concentration of 100 uM). After five minutes at 37° C., reactions were quenched with 40 μL RB. Beads were washed with 40 μL RB and SP_T was eluted with 0.1N NaOH for 10 minutes at room temperature then neutralized with 1.5 uL Tris-HCl pH8.0.
Cleavage of Reversible Terminators: After incorporation of reversible terminators, beads were resuspended in 100 mM TCEP pH9.0 (Gold Bio) and incubated at 65° C. for 30 minutes before quenching with 100 μL RB. Beads were washed with 40 μL RB and either resuspended in a new reaction mixture for further incorporation events or SP_T was eluted with 0.1N NaOH for 10 minutes at room temperature then neutralized with 1.5 uL Tris-HCl pH8.0.

[3] = tested on: enhanced DNA polymerase (EDP); assay: Primer extension assay with enhanced DNA polymerase (EDP); type: biochemical; settings: denaturing PAGE, FIG. 12
Method: as §1

Compound | Primer extension (incorporation of the terminator into the growing DNA chain) catalyzed by CENT1 (DNA polymerase CENT1) | Blocking of further extension after terminator incorporation (Bst polymerase [1]) | De-blocking (removal of 3′-azidomethyl cap, extension resumes) (Bst polymerase [2]) | Primer extension (incorporation of the terminator) catalyzed by EDP [3]
3′-O-azidomethyl-5-(Alexa530-dithiolinker-carbamate)-dUTP [compound 34] | extension was catalyzed | Blocking of further extension after terminator incorporation is observed | De-blocking was accomplished | –
CC(C)(C)OC(=O)NCCSSCCOC(=O)NCC#Cc1cn([C@H]2CC(OCN=[N+]=[N-])[C@@H](COP(=O)(O)OP(=O)(O)OP(=O)(O)O)O2)c(=O)[nH]c1=O (stereo partly drawn) [compound 31] | extension was catalyzed | – | De-blocking was accomplished | extension was catalyzed
[N-]=[N+]=NCOC1C[C@H](n2cc(C#CCNC(=O)OCCSSCCNC(=O)c3ccc(-c4c5ccc(=O)cc-5oc5cc(O)ccc45)c(C(=O)O)c3)c(=O)[nH]c2=O)O[C@@H]1COP(=O)(O)OP(=O)(O)OP(=O)(O)O (stereo partly drawn) [compound 33, 3′-O-azidomethyl-5-(Fluorescein-dithiolinker-cabamate)-2′-deoxyuridinetriphosphate] | extension was catalyzed | Blocking of further extension after terminator incorporation is observed | De-blocking was accomplished | –

Source: patent US11180522B2, “Disulfide-linked reversible terminators” (Centrillion Technology Holdings Corporation, priority 2015, dated 2021)
